# Results: PMC6897379 (Clinical cancer research : an official journal of the …, 2019)
# Read-outs that look alike come from different tables or passages of the source.
# What was measured:
# [1] = test system: p53-wildtype, therapy-refractory NBL cell lines; conditions: cited from earlier work
# [2] = test system: atypical teratoid rhabdoid (ATRT) cell lines; conditions: ATRT cell lines that overexpress AAK with SMARCB1 mutations; cited from earlier work
# [3] = test system: relapsed/refractory solid tumors or acute leukemia; test: Phase 2 trial; type: in vivo, human
# ALL xenografts = conditions: PPTP; cited from earlier work
# [4] = test system: relapsed or refractory solid tumors; conditions: cited from earlier work
# [5] = Phase 2 trial toxicity monitoring; type: in vivo, human
# [6] = adults; twice daily for 7 days; DLT neutropenia and stomatitis; cited from earlier work
# [7] = Toxicity versus germline AURKA genotype; type: in vivo, human
# [8] = Plasma pharmacokinetics in children and adolescents, with UGT1A1 phenotype; type: in vivo, human; conditions: for concentration at 4 day: 80 mg/m^2, Alisertib Cmin Median (range), day 4, I/E, I, P
# ALL-8 xenograft = test: ALL-8 xenograft, comparison of dosing schedules; type: in vivo, NOD/SCID mice
# [9] = children, cited from earlier work
# NBL xenografts = conditions: PPTP; cited from earlier work
# [10] = mice receiving 10 mg/kg; cited from earlier work
# [11] = Acute Lymphoblastic Leukemia, 10 response evaluable
# [12] = Ewing Sarcoma, 10 response evaluable
# [13] = Germ Cell Tumor, 7 response evaluable
# [14] = Hepatoblastoma, 8 response evaluable
# [15] = Neuroblastoma (MIBG Evaluable), 24 response evaluable
# [16] = Neuroblastoma (Measurable), 24 response evaluable
# [17] = Non-Rhabdo Soft Tissue Sarcoma, 10 response evaluable
# [18] = Osteosarcoma, 10 response evaluable
# [19] = Rhabdoid Tumors, 4 response evaluable
# [20] = Rhabdomyosarcoma, 10 response evaluable
# [21] = Total, all strata, 137 response evaluable
# [22] = Wilms tumor, 10 response evaluable
# [23] = human, in vivo, 1 cycle (21 days)
# [24] = Schedule A, twice daily × 7 days
# [25] = Schedule B, twice daily × 5 days × 3 weeks
structure (smiles),measurement,setting,value
"COc1cc(Nc2ncc3c(n2)-c2ccc(Cl)cc2C(c2c(F)cccc2OC)=NC3)ccc1C(=O)O [alisertib, Alisertib]",Activity in cell lines,[1],active
same,Effect on cell lines,[2],induce cell death and augment radiation sensitivity
same,Non-responders,[3]; [11],1
same,Progressive Disease,[3]; [11],6
same,Stable Disease n patients,[3]; [11],3 n patients
same,Non-responders,"[3]; Acute Myeloid Leukemia, 10 response evaluable",10
same,Non-responders,[3]; [12],2
same,Progressive Disease,[3]; [12],5
same,Stable Disease n patients,[3]; [12],3 n patients
same,Non-responders,[3]; [13],1
same,Progressive Disease,[3]; [13],4
same,Stable Disease n patients,[3]; [13],2 n patients
same,Stable Disease cycles administered,[3]; Hepatoblastoma,5 cycles
same,Non-responders,[3]; [14],2
same,Progressive Disease,[3]; [14],4
same,Stable Disease n patients,[3]; [14],1 n patients
same,Stable Disease median (range) cycles administered,[3]; Neuroblastoma (MIBG Evaluable),13 (5–35) cycles
same,Non-responders,[3]; [15],4
same,Progressive Disease,[3]; [15],9
same,Stable Disease n patients,[3]; [15],9 n patients
same,Non-responders,[3]; [16],5
same,Progressive Disease,[3]; [16],16
same,Stable Disease n patients,[3]; [16],2 n patients
same,Stable Disease cycles administered,[3]; Non-Rhabdo Soft Tissue Sarcoma,5 cycles
same,Non-responders,[3]; [17],2
same,Progressive Disease,[3]; [17],7
same,Stable Disease n patients,[3]; [17],1 n patients
same,Responses in the other primary disease strata,"[3]; OS, EWS, RMS, ALL, AML",No responses
same,Non-responders,[3]; [18],2
same,Progressive Disease,[3]; [18],8
same,Non-responders,[3]; [19],1
same,Progressive Disease,[3]; [19],3
same,Stable Disease cycles administered,[3]; Rhabdomyosarcoma,15 cycles
same,Non-responders,[3]; [20],2
same,Progressive Disease,[3]; [20],7
same,Stable Disease n patients,[3]; [20],1 n patients
same,Non-responders,[3]; [21],33
same,Progressive Disease,[3]; [21],76
same,Stable Disease n patients,[3]; [21],23 n patients
same,Stable Disease cycles administered,[3]; Wilms tumor,31 cycles
same,Non-responders,[3]; [22],1
same,Progressive Disease,[3]; [22],7
same,Stable Disease n patients,[3]; [22],1 n patients
same,Objective responses observed,"[3]; all strata, 137 evaluable for response",Five
same,Objective response rate,[3]; children and adolescents receiving single agent alisertib,less than 5%
same,Xenografts with maintained complete responses,ALL xenografts,6 out of 6
same,Duration of stable disease,"[4]; 8 children, phase 1 trial",5–35 cycles
same,Children with stable disease,"[4]; NBL (n=4) and sarcoma (n=4), of 33 response evaluable children",8
same,Recommended phase 2 dose,"[4]; children and adolescents, orally, once daily for 7 days",80 mg/m^2
same,Children with a PR,"[4]; hepatoblastoma, of 33 response evaluable children",one
same,Dehydration Grade 3,"[5]; alisertib related, all cycles (n=500)",6 (1.2%) n (%)
same,Patients with fatal adverse events possibly related to alisertib,[5]; during cycle 1,two
same,ALT increased Grade 3,"[5]; human, in vivo",17 (3.4%) n (%)
same,AST increased Grade 3,"[5]; human, in vivo",10 (2%) n (%)
same,Alisertib-related grade 3 or 4 anemia,"[5]; human, in vivo",13.6%
same,Alisertib-related grade 3 or 4 leukopenia,"[5]; human, in vivo",33%
same,Alisertib-related grade 3 or 4 lymphopenia,"[5]; human, in vivo",12.2%
same,Alisertib-related grade 3 or 4 neutropenia,"[5]; human, in vivo",51.8%
same,Alisertib-related grade 3 or 4 thrombocytopenia,"[5]; human, in vivo",20.8%
same,Anemia Grade 3,"[5]; human, in vivo",63 (12.6%) n (%)
same,Anemia Grade 4,"[5]; human, in vivo",5 (1%) n (%)
same,Anorexia Grade 3,"[5]; human, in vivo",1 (0.2%) n (%)
same,Depression Grade 4,"[5]; human, in vivo",1 (0.2%) n (%)
same,Diarrhea Grade 3,"[5]; human, in vivo",2 (0.4%) n (%)
same,Dizziness Grade 3,"[5]; human, in vivo",14 (2.8%) n (%)
same,Enterocolitis Grade 3,"[5]; human, in vivo",1 (0.2%) n (%)
same,Febrile neutropenia Grade 3,"[5]; human, in vivo",18 (3.6%) n (%)
same,GGT increased Grade 3,"[5]; human, in vivo",1 (0.2%) n (%)
same,Hepatic hemorrhage Grade 5,"[5]; human, in vivo",1 (0.2%) n (%)
same,Hyperbilirubinemia Grade 3,"[5]; human, in vivo",3 (0.6%) n (%)
same,Hypersomnia Grade 3,"[5]; human, in vivo",1 (0.2%) n (%)
same,Hyperuricemia Grade 4,"[5]; human, in vivo",1 (0.2%) n (%)
same,Hypoalbuminemia Grade 3,"[5]; human, in vivo",1 (0.2%) n (%)
same,Hypocalcemia Grade 3,"[5]; human, in vivo",1 (0.2%) n (%)
same,Hypokalemia Grade 3,"[5]; human, in vivo",4 (0.8%) n (%)
same,Hypokalemia Grade 4,"[5]; human, in vivo",1 (0.2%) n (%)
same,Hyponatremia Grade 3,"[5]; human, in vivo",3 (0.6%) n (%)
same,Hypophosphatemia Grade 3,"[5]; human, in vivo",1 (0.2%) n (%)
same,INR increased Grade 3,"[5]; human, in vivo",1 (0.2%) n (%)
same,Infection Grade 3,"[5]; human, in vivo",1 (0.2%) n (%)
same,Leukopenia Grade 3,"[5]; human, in vivo",117 (23.4%) n (%)
same,Leukopenia Grade 4,"[5]; human, in vivo",48 (9.6%) n (%)
same,Lymphopenia Grade 3,"[5]; human, in vivo",47 (9.4%) n (%)
same,Lymphopenia Grade 4,"[5]; human, in vivo",14 (2.8%) n (%)
same,Nausea Grade 3,"[5]; human, in vivo",2 (0.4%) n (%)
same,Neutropenia Grade 3,"[5]; human, in vivo",124 (24.8%) n (%)
same,Neutropenia Grade 4,"[5]; human, in vivo",137 (27.4%) n (%)
same,Oral mucositis Grade 3,"[5]; human, in vivo",19 (3.8%) n (%)
same,Palmar-plantar erythrodysesthesia Grade 3,"[5]; human, in vivo",2 (0.4%) n (%)
same,Photophobia Grade 3,"[5]; human, in vivo",1 (0.2%) n (%)
same,Pneumonia Grade 3,"[5]; human, in vivo",1 (0.2%) n (%)
same,Respiratory failure Grade 5,"[5]; human, in vivo",1 (0.2%) n (%)
same,Serum amylase increased Grade 3,"[5]; human, in vivo",1 (0.2%) n (%)
same,Thrombocytopenia Grade 3,"[5]; human, in vivo",54 (10.8%) n (%)
same,Thrombocytopenia Grade 4,"[5]; human, in vivo",50 (10%) n (%)
same,Tumor lysis syndrome Grade 4,"[5]; human, in vivo",1 (0.2%) n (%)
same,Urinary tract infection Grade 3,"[5]; human, in vivo",1 (0.2%) n (%)
same,Vomiting Grade 3,"[5]; human, in vivo",2 (0.4%) n (%)
same,Patients who experienced dose limiting toxicity,[5]; [23],18 patients
same,"Patients who experienced dose limiting toxicity, percent",[5]; [23],13%
same,Oral pain Grade 3,"[5]; human, in vivo, po",5 (1%) n (%)
same,Most frequent toxicity,[5]; in vivo,myelosuppression
same,Recommended dose,[6],50 mg
same,Cycle 1 DLT No,[7]; AURKA 91 A>T VV,8
same,Grade 2+ Toxicity Yes,[7]; AURKA 91 A>T VV,8
same,Cycle 1 DLT Yes,[7]; AURKA 91 A>T WV,5
same,Grade 2+ Toxicity No,[7]; AURKA 91 A>T WV,5
same,Cycle 1 DLT Yes,[7]; AURKA 91 A>T WW,8
same,Grade 2+ Toxicity No,[7]; AURKA 91 A>T WW,9
same,Cycle 1 DLT No,[7]; AURKA 169G>A VV,2
same,Grade 2+ Toxicity No,[7]; AURKA 169G>A VV,1
same,Grade 2+ Toxicity Yes,[7]; AURKA 169G>A VV,1
same,Cycle 1 DLT No,[7]; AURKA 169G>A WV,18
same,Cycle 1 DLT Yes,[7]; AURKA 169G>A WV,3
same,Grade 2+ Toxicity No,[7]; AURKA 169G>A WV,4
same,Cycle 1 DLT Yes,[7]; AURKA 169G>A WW,10
same,Grade 2+ Toxicity No,[7]; AURKA 169G>A WW,9
same,Grade 2+ Toxicity Yes,[7]; AURKA 169G>A WW,54
same,Cycle 1 DLT No,[7]; AURKA Haplotype H1,25
same,Cycle 1 DLT Yes,[7]; AURKA Haplotype H1,5
same,Grade 2+ Toxicity No,[7]; AURKA Haplotype H1,4
same,Cycle 1 DLT Yes,[7]; AURKA Haplotype H2,8
same,Grade 2+ Toxicity No,[7]; AURKA Haplotype H2,10
same,Cycle 1 DLT Yes,[7]; Total genotyped patients,13
same,Grade 2+ Toxicity No,[7]; Total genotyped patients,14
same,Patients exceeding the 1 μM target trough concentration on day 4,[8]; 26/39 patients,67%
same,Difference in population mean trough concentrations,"[8]; IM/PM versus EM, p 0.0091",1.05 µM
same,Patients with Cmin exceeding 1μM on day 7,"[8]; human, in vivo, 7 day",41%
same,concentration at 4 day,"[8]; human, plasma, oral, Grade ≥ 2: Yes (n=8)",1800 nM
same,concentration at 4 day,"[8]; human, plasma, oral, Grade ≥ 2, No (n=8)",2220 nM
same,concentration at 7 day,"[8]; human, plasma, oral, 80 mg/m^2, Median Cmin on day 7, cycle 1",900 nM
same,Difference in population mean trough concentrations,"[8]; with versus without ≥ grade 2 toxicities, not statistically significant",0.08 µM
same,Objective response,ALL-8 xenograft; Schedule A and Schedule B,neither of the treatment schedules induced an objective response
same,Median EFS Treated,"ALL-8 xenograft; Schedule A, 10.4 mg/kg oral gavage twice daily × 7 days",19.8 days
same,EFS T-C,ALL-8 xenograft; [24],10.9 days
same,EFS T/C,ALL-8 xenograft; [24],2.2
same,Median EFS Treated,"ALL-8 xenograft; Schedule B, 10.4 mg/kg oral gavage twice daily × 5 days × 3 weeks",31.9 days
same,EFS T-C,ALL-8 xenograft; [25],23.0 days
same,EFS T/C,ALL-8 xenograft; [25],3.6
same,"Human cells in the bone marrow, lowest levels achieved",ALL-8 xenograft; both alisertib schedules,approximately 20%
same,"Human cells in the spleen, lowest levels achieved",ALL-8 xenograft; both alisertib schedules,5–10%
same,"Additional delay of leukemia progression, Schedule B compared with Schedule A",ALL-8 xenograft; p=0.004,12.1 days
same,Trough 24 hours after the first dose,[9]; 80 mg/m^2 dose level,1.1 µM
same,Cmax,[9]; recommended dose 80 mg/m^2,7500 ± 100 nM
same,Xenografts with maintained complete responses,NBL xenografts,3 of 7
same,12 h level,[10],1.2 µM
same,AUC0–24 h,[10],39 µM·h
same,Cmax,[10],16000 nM
